Measured values taken from patent US7322369B2, “Methods of detaching microorganisms from, or of inhibiting microbial attachment to, animal or poultry carcasses or seafood or parts thereof” (priority 2000, dated 2008).
Where a name gives a salt, the structure may show the parent alone.

Columns and labels:
Salmonella = test: Detachment of Salmonella in sandwich immunoassay (biosensor); format: binding; conditions: sequential .75M Arginine, 6M Guanidine, 0.25 NaCl + 0.05% Tween 80
bacteria = test: Bactericidal effect; format: cell-based; conditions: pH 2.5
From the text: The present invention also includes a method of quantifying microorganisms (e.g., bacteria) on carcasses or parts thereof. To enhance detachment of microorganisms (e.g., bacteria) for sampling: Treatment of animal and poultry carcass or seafood with polysulfated polysaccharides or carboxymethyl cellulose followed by guanidine or arginine or phosphate buffer and NaCl/non-ionic surfactant may enhance detachment of microorganisms for sampling and analytical purposes. […] At pH 4.8, live bacteria may be recovered with guanidine-HCl. At pH 2.5, guanidine-HCl is bactericidal. Therefore, its use may be limited in the laboratory (FIG. 4). For “in situ” sampling in the slaughter plants, arginine, or phosphate buffer and TWEEN-80/NaCl may be used in place of guanidine (FIG. 5).
Collagen is the major component (40%) of the connective tissues. Results from the scanning electron microscopy studies illustrated the abundance of collagen strands in the fascia and connective tissues (Medina et al. (1999), Scanning Electron Microscopy Studies on Attachment of Escherichia Coli O157:H7 to Bovine Tissues, Presented at 1999 IFT Annual Meeting, Chicago, Ill., July 24-28; Poster at Gordon Research Conference on Molecular Mechanisms of Microbial Adhesions (Aug. 1-6, 1999) and at the 18th Annual Meeting of the Philippine-American Academy of Science and Engineering, Jekyll Is., Ga., Aug. 13-15, 1999). […]

[1] = test system: bacteria bound to collagen; test: Biosensor detachment of bacteria bound to collagen; format: binding; conditions: 0.5M arginine, phosphoric acid 0.1M, HCl 0.1M, citric acid 0.5M
From the text: Use of Guanidine, creatine and arginine: Guanidine is a strong cytotoxic compound and can not be used in large quantities in food plants or slaughter operations. […] However, its use may be limited in the laboratory for analysis of food tissues. Therefore, a substitute for guanidine for detachment of pathogens from food carcasses was investigated. Guanidine is structurally related to creatine and arginine with a guanidyl moeity in their molecules. […] It has been shown that creatine hydrolyzes upon dissolution in water or buffer converting it to creatinine (methylglycocyamidine), a cyclic product and an end product of creatine metabolism. […] Arginine is an essential amino acid for children but not for adults. It is non-essential for adults because it can be derived from proteins in the diet. It is also inexpensive and can be obtained in bulk. Phosphoric acid (0.1M), HCl (0.1M) and citric acid (0.5M) had no effect in the detachment studies.

E. coli 0157 = test: Detachment of E. coli O157 in sandwich immunoassay (biosensor); format: binding; conditions: sequential .75M Arginine, then 0.25 NaCl + 0.05%Tween 80
E. coli O157:H7 surface = test: Biosensor inhibition of collagen binding to E. coli O157:H7 surface; conditions: 12 trials
From the text: (§1) Biosensor Studies: A novel approach to study bacterial attachment to animal carcass was designed. The studies led to a development of a biosensor method to study binding of extracellular matrix components to the surface of immobilized bacteria. This novel approach utilized immobilized whole E. coli cells. This approach allowed the study of the binding of the lipopolysaccharides and other bacterial surface epitopes without altering their chemical structure. Conditions for immobilization and determination of the bacterial cell surface binding properties were initially assessed with anti-E. coli 0157:H7 antibody (Medina et al. (1997), Real-time analysis of antibody binding interactions with immobilized E. coli O157:H7, Biotechnology Techniques, Vol. 11 (3): 173-176). The bacterial surface was bound with an antibody produced against a heat-killed bacteria. […] The binding interactions of polysulfated polysaccharides such as heparan sulfate and iota, lambda and kappa carrageenans were determined with the extracellular matrix proteins (ECM) and the immobilized E. coli O157:H7 cells. […]

E. coli and Salmonella = test: Biosensor kinetics of bacteria-collagen binding (E. coli and Salmonella pooled)
From the text: as §1

[2] = test system: Salmonella typhimurium Sensor Surface; test: Biosensor inhibition of collagen binding to Salmonella typhimurium sensor surface; conditions: 12 trials

N=C(N)N [Guanidine, guanidine]
Surface RU removed from the sensor surface (Salmonella; CFU 0): −137 RU | Surface RU removed from the sensor surface (Salmonella; CFU 10E + 4): −100 RU | Surface RU removed from the sensor surface (Salmonella; CFU 10E + 5): −54 RU | Surface RU removed from the sensor surface (Salmonella; CFU 10E + 6): −22 RU | Surface RU removed from the sensor surface (Salmonella; CFU 10E + 7): −32 RU | bactericidal effect (bacteria): bactericidal | detachment of bacteria bound to collagen [1]: very effective detachment agent

O=C(O)CC(O)(CC(=O)O)C(=O)O [citric acid]
detachment of bacteria bound to collagen [1]: no effect

CN(CC(=O)O)C(=N)N [creatine]
detachment of bacteria bound to collagen [1]: ineffective

Cl [HCl]
detachment of bacteria bound to collagen [1]: no effect

N=C(N)NCCC[C@H](N)C(=O)O [Arginine, arginine]
Surface RU removed from the sensor surface (Salmonella; CFU 0): 75 RU | Surface RU removed from the sensor surface (Salmonella; CFU 10E + 4): 20 RU | Surface RU removed from the sensor surface (Salmonella; CFU 10E + 5): 32 RU | Surface RU removed from the sensor surface (Salmonella; CFU 10E + 6): 48 RU | Surface RU removed from the sensor surface (Salmonella; CFU 10E + 7): 96 RU | Surface RU removed from the sensor surface (E. coli 0157; CFU 0): 99 RU | Surface RU removed from the sensor surface (E. coli 0157; CFU 10E + 3): 237 RU | Surface RU removed from the sensor surface (E. coli 0157; CFU 10E + 4): 249 RU | Surface RU removed from the sensor surface (E. coli 0157; CFU 10E + 5): 275 RU | Surface RU removed from the sensor surface (E. coli 0157; CFU 10E + 6): 299 RU | Surface RU removed from the sensor surface (E. coli 0157; CFU 10E + 7): 405 RU | detachment of bacteria bound to collagen [1]: equally good or better than 1 M guanidine-HCl

collagen
affinity constant of collagen to E. coli binding, mean (E. coli O157:H7 surface): 3e+08 M⁻¹ | dissociation constants of bacteria and collagen binding (E. coli and Salmonella): 10^−8 to 10^−9 KDMole | affinity constants of collagen to E. coli and Salmonella binding, range (E. coli and Salmonella; 12 trials (each)): 10^7 to 10^8 M^−1 | affinity constant of collagen to Salmonella binding, mean [2]: 2.75e+07 M⁻¹

O=P(O)(O)O [Phosphoric acid]
detachment of bacteria bound to collagen [1]: no effect
